Laboratory results as given in patent publication US11535622B2, “Pyrrolo[1,2-b] pyridazine derivatives” (Gilead Sciences, Inc., priority 2018, dated 2022).
Read-outs that look alike come from different tables or passages of the source.

Columns and labels:
[1] = system: human cryopreserved hepatocytes; assay: Metabolic stability in cryopreserved hepatocytes; type: in vitro ADME; conditions: 1 μM test compound
Procedure: Metabolic Stability in Cryopreserved Hepatocytes: Complete HT medium was prepared by the addition of 1 mL Torpedo Antibiotic Mix to 45 mL of InVitroGRO™ HT medium. Supplemented KHB medium consisted of KrebsHenseleit buffer with amikacin (84 μg/mL), calcium chloride (1 mM), gentamicin (84 μg/mL), HEPES (20 mM), heptanoic acid (4.2 μM) and sodium bicarbonate (28.5 mM) and the pH was adjusted to 7.4 at 37° C. using 1 M NaOH or 1 M HCl. The human cryopreserved hepatocytes were pooled from ten adult donors (Celsis, Lot: HBZ).
Vials containing cryopreserved hepatocytes were removed from liquid nitrogen and immediately immersed in a 37° C. water bath. The vials were shaken gently until the contents had thawed and were then immediately emptied into 48 mL of pre warmed Complete HT Medium in a 50 mL conical tube. Cells remaining in the vial were resuspended with 1.0 mL of pre warmed Complete HT Medium and added to the conical tube. The tube was capped and then gently inverted several times to resuspend the hepatocytes. The cell suspension was centrifuged at 50×g at room temperature for 5 minutes and the supernatant discarded. The cell pellet was loosened by gently swirling the centrifuge tube and Supplemented KHB medium was added to obtain a target density of 2×10^6 cells/mL. The total cell count and the proportion of viable cells were determined by Trypan Blue dye exclusion using a hemocytometer.
For incubations, aliquots of hepatocyte suspension (250 μL containing 500,000 cells) were added to 250 μL of 2 μM test compound or metabolic stability controls in supplemented KHB in duplicate wells in a 24-well plate. Final concentration in the incubations were 1×10^6 cells/mL and 1 μM test compound. 7-Hydroxycoumarin and testosterone, compounds known to be efficiently metabolized by hepatocytes, were used as positive controls in parallel incubations ([…] final concentration of each compound). The incubation was carried out with gentle shaking at 37° C. under a humid atmosphere of 95% air/5% CO2 (v/v). Aliquots (50 μL) were removed after 0, 1, 3, and 6 hours and added to 100 μL IS/Q quenching solution. After termination, 150 μL of water was added, the plates were centrifuged at 3000×g for 10 min, and aliquots of the supernatant were analyzed on a Micromass Quattro Premier mass spectrometer coupled to an Agilent 1200 Series HPLC system with a Leap Technologies HTC PAL autosampler as described below.
Liquid Chromatography-Mass Spectrometry: Quantification of test compound and metabolic stability controls was performed by analyte/internal standard peak area ratios (PAR) measured on a Micromass Quattro Premier XL tandem triple quadrupole mass spectrometer coupled to an Agilent 1200 Series HPLC system with a Leap Technologies HTC PAL autosampler. The column used was a Phenomenex® MercuryMS™, Synergi Max-RP (100 Å pore size, 2.5 μm particle size, 20×2.0 mm). Mobile Phase A consisted of 0.2% (v/v) formic acid in 99% water/1% acetonitrile (v/v). Mobile Phase B consisted of 0.2% (v/v) formic acid in 5% water/95% acetonitrile (v/v). Elution was achieved by the following series of linear gradients: initial conditions of 0% B, holding for 30 s, then increasing to 100% B over 90 s, and then returning to the initial conditions over 1 s. The system was allowed to re-equilibrate for a minimum of 60 s between injections. The sample injection volume was 10 μL.

IRAK4 enzyme = IRAK4 enzyme (Homo sapiens (Human), UniProt Q9NWZ3); assay: IRAK4 biochemical assay (HTRF/TR-FRET); conditions: 500 μM ATP
Procedure: IRAK4 enzyme (Carna Biosciences, Chuo-ku, Kobe, Japan) activity was measured by detecting phosphorylated peptide substrate formation using an antibody against the phosphorylated peptide substrate. This is a time-resolved fluorescence resonance energy transfer (TR-FRET) immunoassay, based on the STK1 KnEASE Assay (Cisbio, Bedford, Mass.). […] Compounds diluted in DMSO were spotted into 384 well plates using a Labcyte® Echo 550 Liquid Handling System prior to addition of IRAK4 enzyme and peptide substrate. Reaction solutions were delivered using a Multi-Flo (Bio-Tek Instruments). The enzyme and peptide solution was incubated with compound for 15 minutes at room temp before the reaction was initiated by the addition of ATP.

[2] = pKa determination (pKa PRO Analyzer); type: physicochemical
Procedure: Sample Preparation: A stock solution of test compound in dimethyl sulfoxide (DMSO) having a final concentration of 10 mM was prepared and used in all experiments. The DMSO stocks were thawed, spun, and sonicated in a 40° C. water bath to facilitate dissolution.
The compounds were then transferred into 24 consecutive wells of a 96 well PCR plate for analysis with the aqueous method. […] The compounds were transferred into 24 consecutive wells of a 96 well plate for analysis using the co-solvent method.
Analysis: All data was obtained using a pKa PRO Analyzer (AATI, Ames, Iowa). For the aqueous method, an electrophoretic separation is performed in parallel across 24 different pH values, providing a direct measure of overall compound charge vs. pH. The compounds are detected by UV at 228 nm. The average pH spacing between buffer points is 0.4 pH units covering a typical pH range of 1.7-11.2.
The average pH spacing between buffer points is 0.4 pH units covering a pH range of 1.7-11.2. Four consecutive CE runs are performed for each compound starting with 60% co-solvent buffers and decreasing to 30% co-solvent buffers.
Norfloxacin is used as a daily performance-indicating standard.
Calculation of Results: The total number of pKa values is predicted by relating mobility and compound molecular weight using pKa Estimator® software (AATI, Ames, Iowa).

TNFα = assay: IRAK4 monocyte TNFα cell based assay (LPS stimulated); set-up: species or system human
Procedure: IRAK4 Monocyte TNFα Cell Based Assay Procedure:
The cell suspension was then plated at a density of 5,000 cells/well onto black 384 well Greiner clear bottom plates. Plates were pre-spotted with test compounds and serially diluted in DMSO where 40 nL/well were delivered using the Echo 550 acoustic liquid dispenser (Labcyte®) for a final DMSO concentration of 0.1%. Plated cells were treated with compound for 1 hour at 37° C. Cells were then stimulated with 50 pg/ml of LPS (Sigma) excluding outside columns of plate used for unstimulated cell control wells. Cells were incubated for an additional 4 hours at 37° C. Cells were then spun out of the media and 5 μl of sample were taken and analyzed for total TNFα content using the TR-FRET Human TNFα detection system (CisBio). This system utilizes two labeled antibodies (cryptate and XL665) that bind to two different epitopes of the TNFα molecule and produce FRET signal proportional to the concentration of TNFα in the sample. Detection antibodies are mixed 50:50 and 5 μL were dispensed into each well. Plates were covered with clear seals and incubated at room temp overnight. […] Percent of control was calculated as follows: % Control=100×(RatioSample−Ratio0% stimulation)/(Ratio100% Stimulation−Ratio0% Stimulation) where unstimulated cells (0% stimulation) were the negative control and stimulated cells (100% stimulation) were used as the positive control.

[3] = target: cloned hERG potassium channel encoded by the KCNH2 gene (Homo sapiens (Human), UniProt Q12809); assay: Automated hERG assay (FASTPatch, QPatch); type: cell-based; conditions: HEK293T cells, patch clamp, 0.3-30 uM
Procedure: The FASTPatch® Assay (Charles River) was used to examine the in vitro effects of various compounds on the cloned hERG potassium channel encoded by the KCNH2 gene and stably expressed in HEK293T cells. Vehicle, test and control article formulations were prepared by diluting DMSO stock solutions in HB-PS (HEPES-buffered physiological saline solution), and were delivered to cells via the QPatch robot pipetting system to a final concentration of 0.3% DMSO. […] The positive control, 50 nM Cisparide, was applied in the same manner. Cell membrane currents were recorded at room temperature with up to 48 parallel patch clamp amplifiers in the QPatch HT® or QPatch HTX® system, and only cells with validated whole-cell recordings (seal resistance ≥200 MO and leak current ≤25% channel current) were used. Onset and block of hERG current was measured using a stimulus voltage pattern consisting of a 500 ms prepulse to −40 mV, a 2-second activating pulse to +40 mV, followed by a 2-second test pulse to −40 mV. The pulse pattern was repeated continuously at 10-second intervals from a holding potential of −80 mV. TurboSol analysis for test compound solubility was performed for each concentration tested using a Nephelostar reader measuring light scatter from a 635 nm laser source. […]

[4] = human monocytes, LPS 50 pg/ml, TNFα by TR-FRET, read-out: EC50 TNF

IRAK4 enzyme, sequence (Q9NWZ3 whole entry): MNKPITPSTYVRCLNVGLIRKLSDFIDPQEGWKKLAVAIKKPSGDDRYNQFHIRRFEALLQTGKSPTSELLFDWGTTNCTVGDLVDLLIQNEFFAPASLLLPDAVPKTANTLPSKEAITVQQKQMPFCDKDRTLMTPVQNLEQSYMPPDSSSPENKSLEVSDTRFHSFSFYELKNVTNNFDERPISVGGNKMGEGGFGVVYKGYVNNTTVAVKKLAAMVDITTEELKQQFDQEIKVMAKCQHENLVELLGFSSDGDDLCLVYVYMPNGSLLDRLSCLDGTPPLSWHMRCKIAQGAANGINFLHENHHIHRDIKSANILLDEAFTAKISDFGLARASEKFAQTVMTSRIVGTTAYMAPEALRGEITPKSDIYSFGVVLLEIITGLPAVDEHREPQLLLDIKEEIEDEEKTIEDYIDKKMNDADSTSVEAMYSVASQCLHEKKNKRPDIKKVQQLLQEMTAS
cloned hERG potassium channel encoded by the KCNH2 gene, sequence (Q12809 whole entry): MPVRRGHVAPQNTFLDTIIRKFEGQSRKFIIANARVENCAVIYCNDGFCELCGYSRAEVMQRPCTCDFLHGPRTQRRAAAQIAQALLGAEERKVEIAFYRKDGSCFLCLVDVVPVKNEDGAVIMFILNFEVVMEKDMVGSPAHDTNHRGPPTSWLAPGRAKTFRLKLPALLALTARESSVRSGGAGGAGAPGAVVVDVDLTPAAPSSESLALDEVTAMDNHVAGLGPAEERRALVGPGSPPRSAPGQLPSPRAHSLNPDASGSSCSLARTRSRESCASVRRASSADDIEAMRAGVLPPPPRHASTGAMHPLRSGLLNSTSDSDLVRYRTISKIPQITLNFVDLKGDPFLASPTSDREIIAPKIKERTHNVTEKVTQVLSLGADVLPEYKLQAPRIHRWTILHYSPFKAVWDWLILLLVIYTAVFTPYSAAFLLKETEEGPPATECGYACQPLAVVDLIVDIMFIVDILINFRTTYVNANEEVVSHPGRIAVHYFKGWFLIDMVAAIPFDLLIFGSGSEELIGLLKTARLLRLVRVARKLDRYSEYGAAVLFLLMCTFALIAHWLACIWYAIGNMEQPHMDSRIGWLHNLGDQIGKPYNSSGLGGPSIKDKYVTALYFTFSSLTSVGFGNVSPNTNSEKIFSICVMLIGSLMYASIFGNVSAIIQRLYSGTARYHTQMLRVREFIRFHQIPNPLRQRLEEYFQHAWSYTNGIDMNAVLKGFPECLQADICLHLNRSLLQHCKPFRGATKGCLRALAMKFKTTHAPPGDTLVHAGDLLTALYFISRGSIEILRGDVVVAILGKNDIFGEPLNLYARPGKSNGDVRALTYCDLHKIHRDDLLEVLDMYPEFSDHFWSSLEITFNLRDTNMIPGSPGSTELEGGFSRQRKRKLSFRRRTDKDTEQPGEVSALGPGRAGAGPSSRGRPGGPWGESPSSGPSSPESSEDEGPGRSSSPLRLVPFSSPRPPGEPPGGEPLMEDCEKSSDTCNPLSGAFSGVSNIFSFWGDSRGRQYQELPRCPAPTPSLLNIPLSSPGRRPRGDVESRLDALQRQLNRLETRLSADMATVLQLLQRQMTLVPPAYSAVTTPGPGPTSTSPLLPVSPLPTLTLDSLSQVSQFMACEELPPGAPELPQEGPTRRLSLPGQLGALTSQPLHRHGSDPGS

| Structure (SMILES) | Human Hep. Stability [1] [L/h/kg] | IC50 (IRAK4 enzyme) [nM] | pKa [2] | EC50 (TNFα; [4]) [nM] | EC50 (TNFα; protein adjusted, competitive equilibrium dialysis, human plasma versus CCM with 10% FBS, read-out: Protein Adj. EC50 TNF) [nM] | IC50 [3] [µM] |
| --- | --- | --- | --- | --- | --- | --- |
| CC(C)Nc1cc(-c2ccc3cc(C#N)cnn23)ncc1C(=O)NC[C@@H](F)C(C)(C)O [A, reference compound] | 0.20 | < 1 | 6.1 | 23 | 504 | 3.9 |
| CNc1cc(-c2ccc3cc(C#N)cnn23)ncc1C(=O)NC[C@@H](F)C(C)(C)O [Compound 1, (R)-6-(3-cyanopyrrolo[1,2-b]pyridazin-7-yl)-N-(2-fluoro-3-hydroxy-3-methylbutyl)-4-(methylamino)nicotinamide] | 0.05 |  | 6.6 |  |  |  |
| CC(C)(O)[C@H](F)CNC(=O)c1cnc(-c2ccc3cc(C#N)cnn23)cc1NCC#N [Compound 2, (R)-4-((cyanomethyl)amino)-6-(3-cyanopyrrolo[1,2-b]pyridazin-7-yl)-N-(2-fluoro-3-hydroxy-3-methylbutyl)nicotinamide] | 0.13 |  | 5.1 |  |  |  |
| C[C@H](C#N)Nc1cc(-c2ccc3cc(C#N)cnn23)ncc1C(=O)NC[C@@H](F)C(C)(C)O [Compound 3, 4-(((R)-1-cyanoethyl)amino)-6-(3-cyanopyrrolo[1,2-b]pyridazin-7-yl)-N-((R)-2-fluoro-3-hydroxy-3-methylbutyl)nicotinamide] | 0.08 |  | 4.9 |  |  |  |
| CC[C@H](C#N)Nc1cc(-c2ccc3cc(C#N)cnn23)ncc1C(=O)NC[C@@H](F)C(C)(C)O [Compound 5, 4-(((R)-1-cyanopropyl)amino)-6-(3-cyanopyrrolo[1,2-b]pyridazin-7-yl)-N-((R)-2-fluoro-3-hydroxy-3-methylbutyl)nicotinamide] |  | 1 |  | 60 |  |  |
| CC[C@@H](C#N)Nc1cc(-c2ccc3cc(C#N)cnn23)ncc1C(=O)NC[C@@H](F)C(C)(C)O [Compound 6, 4-(((S)-1-cyanopropyl)amino)-6-(3-cyanopyrrolo[1,2-b]pyridazin-7-yl)-N-((R)-2-fluoro-3-hydroxy-3-methylbutyl)nicotinamide] |  | 5 |  | 267 |  |  |
| CC(C)(O)[C@H](F)CNC(=O)c1cnc(-c2ccc3cc(C#N)cnn23)cc1NCCC#N [Compound 7, (R)-4-((2-cyanoethyl)amino)-6-(3-cyanopyrrolo[1,2-b]pyridazin-7-yl)-N-(2-fluoro-3-hydroxy-3-methylbutyl)nicotinamide] |  |  |  | 164 |  |  |
| CC(C)(O)[C@H](F)CNC(=O)c1cnc(-c2ccc3cc(C#N)cnn23)cc1NCCCC#N [Compound 8, (R)-4-((3-cyanopropyl)amino)-6-(3-cyanopyrrolo[1,2-b]pyridazin-7-yl)-N-(2-fluoro-3-hydroxy-3-methylbutyl)nicotinamide] | 0.14 | < 1 | 5.9 | 33 |  | 3.5 |
| CC(C)(C#N)Nc1cc(-c2ccc3cc(C#N)cnn23)ncc1C(=O)NC[C@@H](F)C(C)(C)O [Compound 9, (R)-4-((2-cyanopropan-2-yl)amino)-6-(3-cyanopyrrolo[1,2-b]pyridazin-7-yl)-N-(2-fluoro-3-hydroxy-3-methylbutyl)nicotinamide] | 0.26 | < 1 | 4.8 | 49 |  |  |
| CC(C)(O)[C@H](F)CNC(=O)c1cnc(-c2ccc3cc(C#N)cnn23)cc1NC1(C#N)CC1 [Compound 10, (R)-4-((1-cyanocyclopropyl)amino)-6-(3-cyanopyrrolo[1,2-b]pyridazin-7-yl)-N-(2-fluoro-3-hydroxy-3-methylbutyl)nicotinamide] | 0.22 | < 1 |  | 35 |  |  |
